Measured values as given in patent US10039806B2, “Methods and compositions for treating antiprogestin-resistant cancers” (Fundación Sales, priority 2011, dated 2018).
Where two headings read alike, the source gives them in different places.

How the values were obtained:
T61 human tumors = settings: in vivo; cited from earlier work
[1] = test system: epithelial cells from breast cancer samples; assay: Primary cultures from breast cancer samples: cell number or Ki67; format: cell-based, human; settings: 10^-8 M, one week; 3 out of 8 cases; p<0.05
Excerpt: The samples were obtained at surgery from patients diagnosed with breast cancer at the […]. de Martinez Hospital from General Pacheco and at the […] Hospital of Buenos Aires after signing the informed consent (n=70; median age 55 year). Protocols were approved by the Institutional Ethical Review Board. Whenever possible, one piece of the sample was kept in dry ice immediately after surgery and another piece was kept in culture medium and transported to IBYME. Tumor samples were processed by mechanical and enzymatic degradation and epithelial cells were purified by differential sedimentation techniques (7). The epithelial cells were cultured with DMEM/F12 medium plus 10% fetal calf serum (FCS). Once the cultures were overcrowded, they were subcultured and equal numbers of cells were seeded in 24 well plates. […] OH-Tamoxifen was also used as a control. After one week of treatment, the cells were trypsinized and the total number of cells in each well was counted or alternatively, they were fixed to evaluate the Ki67 (proliferation marker) expression by IHC. In several cases in which there were carcinoma associated fibroblasts intermingled with the epithelial cells, a double staining of Ki67 and cytokeratin (CK) was performed to consider the proliferating cells among the total number of epithelial cells (CK+). An inhibitory index was calculated for each tumor.

T47D cells = settings: cited from earlier work
[2] = test system: DMBA-induced mammary tumors; settings: cited from earlier work
MCF-7 cells = settings: 10 nM; 10% steroid-deficient human serum; cited from earlier work
HI-responsive tumors [3] = assay: MPA breast cancer model, HI-responsive tumors in vivo; parameters: species or system mouse
glucocorticoid receptor = molecular target: T1, glucocorticoid receptor (Homo sapiens, UniProt P04150); settings: cited from earlier work
T1 sequence (P04150 1-777): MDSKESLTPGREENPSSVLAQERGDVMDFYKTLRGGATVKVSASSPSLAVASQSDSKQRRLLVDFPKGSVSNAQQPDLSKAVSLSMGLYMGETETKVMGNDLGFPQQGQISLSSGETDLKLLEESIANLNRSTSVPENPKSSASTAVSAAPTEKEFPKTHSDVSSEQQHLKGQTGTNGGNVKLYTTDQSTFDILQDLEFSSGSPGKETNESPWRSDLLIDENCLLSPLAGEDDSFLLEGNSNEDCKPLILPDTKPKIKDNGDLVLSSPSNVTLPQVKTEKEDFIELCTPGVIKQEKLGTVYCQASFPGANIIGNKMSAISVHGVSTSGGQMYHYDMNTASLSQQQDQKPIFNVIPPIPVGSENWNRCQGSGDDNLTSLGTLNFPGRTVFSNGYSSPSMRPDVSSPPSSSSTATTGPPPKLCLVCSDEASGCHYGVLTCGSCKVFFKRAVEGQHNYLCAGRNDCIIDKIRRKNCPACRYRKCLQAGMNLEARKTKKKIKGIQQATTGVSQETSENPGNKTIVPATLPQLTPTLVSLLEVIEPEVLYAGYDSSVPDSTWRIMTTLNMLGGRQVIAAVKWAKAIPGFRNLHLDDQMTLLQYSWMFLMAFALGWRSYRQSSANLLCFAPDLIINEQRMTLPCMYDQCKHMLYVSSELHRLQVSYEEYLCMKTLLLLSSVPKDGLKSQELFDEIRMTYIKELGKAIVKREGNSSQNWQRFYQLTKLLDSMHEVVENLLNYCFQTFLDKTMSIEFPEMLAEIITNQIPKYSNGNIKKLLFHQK

HI-responsive tumors [4] = settings: cited from earlier work; for therapeutic effects: murine mammary carcinomas with increased PR-A/PR-B
PR [5] = molecular target: T2, PR (Homo sapiens, UniProt P06401); settings: cited from earlier work
T2 sequence (P06401 1-933): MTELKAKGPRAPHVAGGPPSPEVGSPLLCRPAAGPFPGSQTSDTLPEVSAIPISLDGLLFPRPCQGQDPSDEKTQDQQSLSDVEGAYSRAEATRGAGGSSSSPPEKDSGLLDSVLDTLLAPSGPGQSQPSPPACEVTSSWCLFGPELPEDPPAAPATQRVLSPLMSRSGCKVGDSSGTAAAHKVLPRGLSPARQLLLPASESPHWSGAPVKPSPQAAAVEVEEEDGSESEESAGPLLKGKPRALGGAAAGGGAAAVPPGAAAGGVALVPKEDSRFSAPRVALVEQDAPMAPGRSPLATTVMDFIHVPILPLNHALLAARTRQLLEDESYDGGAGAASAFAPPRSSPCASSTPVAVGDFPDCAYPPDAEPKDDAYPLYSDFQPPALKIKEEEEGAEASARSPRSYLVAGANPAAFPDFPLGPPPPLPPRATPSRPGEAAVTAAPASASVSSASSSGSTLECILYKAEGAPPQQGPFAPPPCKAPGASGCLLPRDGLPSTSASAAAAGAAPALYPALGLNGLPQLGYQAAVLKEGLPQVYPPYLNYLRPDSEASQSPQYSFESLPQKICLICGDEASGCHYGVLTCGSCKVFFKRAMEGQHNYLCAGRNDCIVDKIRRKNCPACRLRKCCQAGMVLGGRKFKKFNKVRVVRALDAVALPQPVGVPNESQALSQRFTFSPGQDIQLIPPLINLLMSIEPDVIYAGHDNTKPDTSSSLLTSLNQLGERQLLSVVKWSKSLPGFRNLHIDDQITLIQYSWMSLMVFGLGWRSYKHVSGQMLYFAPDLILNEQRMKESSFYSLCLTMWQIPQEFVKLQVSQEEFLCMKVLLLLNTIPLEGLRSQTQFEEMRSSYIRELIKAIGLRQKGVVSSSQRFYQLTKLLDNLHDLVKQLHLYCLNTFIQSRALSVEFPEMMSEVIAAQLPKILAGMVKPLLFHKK

C4-HIR cells = assay: (3H)-thymidine uptake, primary cultures of purified epithelial cells; format: cell-based, mouse; settings: 48 h, with MPA; P<0.001
Method: (§1) Epithelial cells and carcinoma-associated fibroblasts were separated by differential sedimentation and plated with 10% FCS. Carcinoma-associated fibroblasts were allowed to attach for 0.5 h and the epithelial cells for 24-48 h. The medium was replaced by fresh medium with 10% FCS; thereafter, it was changed every 2-3 days.
(§2) (3H)-thymidine-uptake was used as an indirect method to evaluate cell proliferation. In brief, cells were seeded into 96-well microplates. After attachment (24 h), the cells were incubated for 24 h with 1% steroid-stripped FCS and then for 48 h with the experimental solutions to be tested in 1% chFCS. Fifty percent of the medium was replaced with fresh medium every 24 h. The cells were incubated with 0.4 μCi of 3H-thymidine (specific activity: 20 Ci/mmol) for 24 h, trypsinized, and harvested in a cell harvester. In experiments in which 5azadC was used, the experiments were carried out using proliferating cells (presence of 10% FCS) to guarantee the effect of the demethylating agent. Three different experiments were made using octuplicates, and the means and standard deviations of one representative experiment of the other three are shown. The results are expressed as the proliferation index (cpm […] experimental group/cpm control; mean±SEM).

C4-HI cells = assay: as above; format: cell-based, mouse; settings: 48 h, with MPA; P<0.001
Method: as §1, §2

[6] = test system: primary cultures of responsive tumors; settings: 1-100 nM; cited from earlier work
[7] = test system: MXT mouse model of breast cancer; settings: cited from earlier work
breast cancer = settings: cited from earlier work
MCF-7 xenografts = settings: MIF 50 mg/kg/day, ONA 30 mg/kg/day, 17 days; cited from earlier work
GR = GR (Homo sapiens, UniProt P04150); settings: cited from earlier work
PR [8] = molecular target: T2, PR; settings: cited from earlier work; remark: listed apart in the source

In the case of CC/C(=C(\c1ccccc1)c1ccc(OCCN(C)C)cc1)c1ccccc1 [Tamoxifen, tamoxifen], the tumor growth (T61 human tumors) is listed as “inhibits tumor growth”, the “number of cells as compared to the controls” value [1] is listed as “significant decrease in the number of cells” and the E2-induced cell proliferation (T47D cells; clone 11, ER- and PR-positive) is listed as “specifically inhibit E2-induced cell proliferation”. For the same molecule, the “PR (and ER) expression” value ([2]; rat, in vivo) was “increased PR expression”, the E2-induced cell proliferation (MCF-7 cells) was “inhibited E2-induced cell proliferation” and the tumor growth (HI-responsive tumors [3]; mouse, in vivo) was “tumor growth was inhibited”.
For C[C@]12CC[C@@H]3c4ccc(O)cc4CC[C@H]3[C@@H]1CC[C@@H]2O [E2, 17-β-Estradiol], the tumor growth (T61 human tumors) is given as “induces tumor regression” and the tumor regression (HI-responsive tumors [3]; 0.5-5 mg) is given as “regress”.
In the case of CC(=O)c1ccc([C@H]2C[C@@]3(C)[C@@H](CC[C@@]3(O)C(F)(F)C(F)(F)F)[C@@H]3CCC4=CC(=O)CCC4=C32)cc1 [ZK 230211, lonaprisan], the antiglucocorticoid activity (glucocorticoid receptor) is listed as “low antiglucocorticoid activity”, the tumor regression (HI-responsive tumors [4]; daily doses of 10 mg/kg) is listed as “regress” and the tumor regression (HI-responsive tumors [4]; mouse, in vivo) is listed as “induced tumor regression”. For the same molecule, the therapeutic effects (HI-responsive tumors [4]) was “excellent therapeutic effects”, the “effect on PKA-activated PR-B” value (PR [5]) was “no effect on PKA-activated PR-B” and the MPA-induced proliferative effect (C4-HIR cells) was “abolished”. For the same molecule, the MPA-induced proliferative effect (C4-HI cells) was “abolished”, the “MPA-induced or FGF2-induced cell proliferation” value [6] was “inhibited MPA-induced or FGF2-induced cell proliferation” and the apoptosis (T47D cells; 10 nM) was “induces apoptosis”.
For CCC(=O)[C@@]1(C)CC[C@H]2[C@@H]3CCC4=CC(=O)CCC4=C3CC[C@@]21C [R5020], the “proliferation of T47D and MCF-7 cells” value (T47D cells; MIF at micromolar concentrations) is given as “stimulate the proliferation”.
For CN(C)c1ccc([C@H]2C[C@]3(C)[C@@H](CC[C@]3(O)CCCO)[C@@H]3CCC4=CC(=O)CCC4=C32)cc1 [ONA, onapristone], the antiglucocorticoid activity (glucocorticoid receptor) is given as “antiglucocorticoid effects at higher concentrations”, the tumor regression (HI-responsive tumors [4]; daily doses of 10 mg/kg) is given as “regress” and the tumor regression (HI-responsive tumors [4]; mouse, in vivo) is given as “induced tumor regression”. For the same molecule, the therapeutic effects (HI-responsive tumors [4]) was “excellent therapeutic effects”, the tumor growth (T61 human tumors) was “has no effect” and the “effect in cells treated with analogs of cyclic AMP” value (PR [5]; T47D cells transfected with MMTV-CAT) was “still behaved as an antagonist”. The “inhibition of cell proliferation compared with MIF” value ([7]; 10 mg/kg/day) was “better than MIF at inhibiting cell proliferation”, the “tumor take and stimulatory effects of E2 and MPA” value ([7]; 1 or 10 mg/kg/day from one day post-transplantation) was “inhibited both tumor take and the stimulatory effects of E2 and MPA” and the “MPA-induced or FGF2-induced cell proliferation” value [6] was “inhibited MPA-induced or FGF2-induced cell proliferation”. The “effects on T47D cells” value (T47D cells; 5% FCS) was “inhibitory effects”, the partial response (breast cancer; 19 patients) was 56% and the stable disease (breast cancer; 19 patients) was 11%. For the same molecule, the reason for discontinuation (breast cancer; human, in vivo) was “hepatotoxicity”, the “reason for stopping the trial” value (breast cancer; human, in vivo) was “liver function test abnormalities” and the “efficacy compared with MIF” value ([2]; same doses) was “more efficacious than MIF”. The “E2-induced proliferation of xenografts” value (MCF-7 xenografts) was “inhibited”.
In the case of C[C@H]1CC2=CC(=O)CCC2=C2[C@@H]1[C@@H]1CC[C@@]3(CCCO3)[C@@]1(C)C[C@@H]2c1ccc(N(C)C)cc1 [Org 31806], the “efficacy compared with MIF” value ([2]; p.o.) is given as “more effective than MIF”.
For CC(=O)O[C@]1(C(C)=O)CC[C@H]2[C@@H]3CCC4=CC(=O)CCC4=C3[C@@H](c3ccc(N(C)C)cc3)C[C@@]21C [CDB-2914], the antiglucocorticoid activity (glucocorticoid receptor) is given as “less than that of MIF”.
For COCC(=O)[C@@]1(OC(C)=O)CC[C@H]2[C@@H]3CCC4=CC(=O)CCC4=C3[C@@H](c3ccc(N(C)C)cc3)C[C@@]21C [CDB-4124], the antiglucocorticoid activity (glucocorticoid receptor) is given as “less than that of MIF”.
In the case of C/C=C\[C@]1(O)CC[C@H]2[C@@H]3CCC4=CC(=O)CCC4=C3[C@@H](c3ccc(N(C)C)cc3)C[C@@]21C [Aglepristone], the GR affinity (GR) is listed as “lower affinity”, the tumor regression (HI-responsive tumors [3]; 3 mg/week, unpublished data) is listed as “regress” and the PR affinity (PR [8]) is listed as “high affinity”.
In the case of C[C@@H]1C[C@@H]2C(=C3CCC(=O)C=C31)[C@@H](c1ccc(N(C)C)cc1)C[C@@]1(C)[C@H]2CC[C@@]12CCCO2 [Org 31710], the “efficacy compared with MIF” value ([2]; p.o.) is given as “more effective than MIF”.
For CC#C[C@]1(O)CC[C@H]2[C@@H]3CCC4=CC(=O)CCC4=C3[C@@H](c3ccc(C(C)=O)cc3)C[C@@]21C [ZK 112993], the tumor growth (T61 human tumors) is given as “significantly inhibits the growth”.
